Earlier results in US20130273137A1, “DRUG DELIVERY COATING AND DEVICES” (MASSACHUSETTS EYE & EAR INFIRMARY, priority 2010, published 2013).

Tested on: S. aureus
Settings: native MIC

## CN[C@H](CC(C)C)C(=O)N[C@H]1C(=O)N[C@@H](CC(N)=O)C(=O)N[C@H]2C(=O)N[C@H]3C(=O)N[C@H](C(=O)N[C@H](C(=O)O)c4cc(O)cc(O)c4-c4cc3ccc4O)[C@H](O)c3ccc(c(Cl)c3)Oc3cc2cc(c3O[C@@H]2O[C@H](CO)[C@@H](O)[C@H](O)[C@H]2O[C@H]2C[C@](C)(N)[C@H](O)[C@H](C)O2)Oc2ccc(cc2Cl)[C@H]1O [vancomycin]
  minimum inhibitory concentration of vancomycin against S. aureus: 0.5 to 2 µg/mL
